Assay results as given in US20070172422A1, “Exponential pattern recognition based cellular targeting compositions, methods and anticancer applications” (priority 2001, published 2007).

Tests used:
[1] = times more potent than doxorubicin; cited from earlier work
[2] = tested on: cells including adriamycin resistant tumor lines; conditions: cited from earlier work
PSMA = PSMA (Homo sapiens, UniProt Q04609); assay: inhibition of the enzymatic activity of PSMA; type: biochemical
Protocol: The ability of Compound 8 to inhibit the enzymatic activity of PSMA (and consequently to bind to the enzyme) was evaluated using the method described previously in Ser. No. 09/712,465 Nov. 15, 2000 Glazier, Arnold. “Selective Cellular Targeting: Multifunctional Delivery Vehicles, Multifunctional Prodrugs, Use as Neoplastic Drugs. The IC50 for Compound 8 was 8 nanomolar.

PSMA, sequence (Q04609 whole entry, species assumed): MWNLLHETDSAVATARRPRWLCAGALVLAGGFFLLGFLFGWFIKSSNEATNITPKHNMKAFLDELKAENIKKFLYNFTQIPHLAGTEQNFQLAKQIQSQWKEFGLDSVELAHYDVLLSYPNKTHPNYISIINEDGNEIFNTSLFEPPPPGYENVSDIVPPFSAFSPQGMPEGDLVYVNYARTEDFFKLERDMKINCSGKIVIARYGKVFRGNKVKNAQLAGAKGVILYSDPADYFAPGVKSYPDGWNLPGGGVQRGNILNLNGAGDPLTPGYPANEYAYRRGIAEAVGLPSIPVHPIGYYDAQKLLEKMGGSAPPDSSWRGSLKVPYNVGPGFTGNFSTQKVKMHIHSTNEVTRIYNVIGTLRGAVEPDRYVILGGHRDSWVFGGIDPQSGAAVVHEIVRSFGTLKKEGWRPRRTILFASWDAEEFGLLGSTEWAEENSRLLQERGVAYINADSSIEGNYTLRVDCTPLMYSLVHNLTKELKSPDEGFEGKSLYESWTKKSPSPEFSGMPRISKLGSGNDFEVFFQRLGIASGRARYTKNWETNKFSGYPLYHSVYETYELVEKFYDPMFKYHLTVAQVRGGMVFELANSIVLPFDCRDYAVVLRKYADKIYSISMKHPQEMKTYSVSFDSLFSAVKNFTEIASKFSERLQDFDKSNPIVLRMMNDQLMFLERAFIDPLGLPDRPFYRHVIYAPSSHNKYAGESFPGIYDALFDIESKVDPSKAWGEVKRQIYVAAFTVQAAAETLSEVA

## COc1cccc2c1C(=O)c1c(O)c3c(c(O)c1C2=O)C[C@@](O)(C(=O)CO)C[C@@H]3O[C@H]1C[C@H](N2C=CCC2)[C@H](O)[C@H](C)O1 [2-pyrrolinodoxorubicin]
[1]
  potency relative to doxorubicin: 500-1000 times

## CO[C@@H]1[C@H](O)C[C@@H](O[C@@H]2C[C@H](Oc3cc4cc5c(c(O)c4c(O)c3C)C(=O)[C@@H](O[C@H]3C[C@@H](O[C@H]4C[C@@H](O[C@H]6C[C@](C)(O)[C@@H](OC(C)=O)[C@H](C)O6)[C@H](O)[C@@H](C)O4)[C@H](O)[C@@H](C)O3)[C@H]([C@H](OC)C(=O)[C@@H](O)[C@@H](C)O)C5)O[C@H](C)[C@@H]2OC(C)=O)O[C@@H]1C [Chromomycin A3]
[2]
  concentrations at which cytotoxic: subnanomolar concentrations

## COc1ccc(C(=O)NCCOCCOCCOCCNC(=O)CCC(NC(=O)NC(CCC(=O)O)C(=O)O)C(=O)O)cc1 (stereo not drawn) [Compound 8]
PSMA
  IC50: 8 nM
